Assay results reported in publication PMC11181322, “Copper(II) Complexes with Isomeric Morpholine-Substituted 2-Formylpyridine Thiosemicarbazone Hybrids as Potential Anticancer Drugs Inhibiting Both Ribonucleotide Reductase and Tubulin Polymerization: The Morpholine Position Matters” (Journal of Medicinal Chemistry, 2024).
Where two headings read alike, the source gives them in different places.

Experiments:
[1] = system: MES-SA/Dx5 cells; experiment: Fluorescent protein-based cytotoxicity assay, MES-SA/Dx5; type: cell-based, human; settings: for IC50: 120 h, ± SD, n = 3; for SR, selectivity ratio IC50 (MES-SA)/IC50 (MES-SA/Dx5): in the absence of TQ
Description: (§1) The cytotoxic activity of proligands H2L^3–H2L^6 and their copper(II) complexes 3–6 was investigated in the MES-SA (human uterine sarcoma) and in its MDR counterpart (MES-SA/Dx5) cell lines by a fluorescent protein-based assay.[73]
(§2) The human uterine sarcoma cell lines MES-SA and the doxorubicin selected MES-SA-Dx5 were obtained from ATCC (MES-SA: No. CRL-1976, MES-SA/Dx5: No. CRL-1977) and were used for the intracellular ROS generation studies. For cytotoxicity, we used the fluorescent cell lines MES-SA mCherry and MES-SA/Dx5 eGFP, which were created by lentiviral transductions of the respective genes.[73] The phenotype of the resistant cells was maintained by 500 nM doxorubicin treatment a week before use and was verified using cytotoxicity assays. Cells were cultivated at 37 °C, 5% CO2 in Dulbecco’s modified Eagle's Medium (DMEM, Sigma-Aldrich), supplemented with 10% fetal bovine serum, 5 mM glutamine, and 50 unit/mL penicillin and streptomycin (Thermo Fisher).
(§3) MES-SA mCherry and MES-SA/Dx5 eGFP cell suspensions were seeded after trypsinization at 2500 cells/20 μL density on 384-well plates, containing 20 μL of completed medium. The next day, serial dilution of the compounds was prepared and added in an additional 20 μL, with or without 0.4 μM Tariquidar. Liquid handling steps were performed by a Hamilton StarLet robot. […] The mean and standard deviation of the pIC50 values were calculated and converted to IC50 values.

[2] = system: MES-SA cells; experiment: Fluorescent protein-based cytotoxicity assay, MES-SA; type: cell-based, human; settings: 120 h, ± SD, n = 3
Description: as §1, §2, §3

[3] = calculated at pH 7.4, aqueous solution ref 69, 52; cited from earlier work
[4] = set-up: method as in PMID 32336116; settings: copper(II) complexes of the named TSCs, measured under similar conditions ref 67; cited from earlier work
[5] = molecular target: T1, mR2 RNR protein (Mus musculus, UniProt P11157); experiment: Tyrosyl radical reduction in mR2 RNR protein (EPR); type: biochemical; settings: 20 μM mR2, 1:1 protein-to-drug
T1 construct: made in house
T1 sequence (P11157 1-390): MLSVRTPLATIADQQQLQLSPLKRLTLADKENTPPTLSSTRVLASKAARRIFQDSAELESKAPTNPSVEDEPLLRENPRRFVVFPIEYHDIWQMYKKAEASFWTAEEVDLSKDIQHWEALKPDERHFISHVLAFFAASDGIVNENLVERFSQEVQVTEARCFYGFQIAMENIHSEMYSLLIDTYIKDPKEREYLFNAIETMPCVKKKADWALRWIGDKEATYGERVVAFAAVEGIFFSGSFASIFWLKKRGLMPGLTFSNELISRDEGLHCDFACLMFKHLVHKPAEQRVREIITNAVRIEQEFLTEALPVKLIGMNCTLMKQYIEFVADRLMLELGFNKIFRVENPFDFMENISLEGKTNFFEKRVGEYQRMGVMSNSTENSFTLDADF
Description: Since α-N-heterocyclic TSCs are very potent R2 RNR inhibitors, the time-dependent Y^• reduction of the mR2 RNR protein was measured. The effect of equimolar concentrations of the proligands H2L^3–H2L^6 and their copper(II) complexes 3–6, in the absence and presence of an external reductant DTT, is shown in Figure 7.
Figure 7 Tyrosyl radical reduction kinetics of mR2 RNR (20 μM) in the absence (triangles) and in the presence (circles) of an external reductant (2 mM DTT) at the 1:1 protein-to-drug ratio, measured by EPR spectroscopy at 30 K, for (a) H2L^3 (black), H2L^4 (red), H2L^5 (blue), and H2L^6 (green) and for (b) 3 (black), 4 (red), 5 (blue), and 6 (green).
Samples containing 20 μM mR2 in 50 mM HEPES buffer, pH 7.5/100 mM NaCl, 20 μM compound in 1% (v/v) DMSO/H2O, in the absence or presence of 2 mM DTT, were incubated for indicated times and quickly frozen in cold isopentane. The same samples were used for repeated incubations at room temperature. The experiments were performed in duplicate.

[6] = Proton dissociation constants (pKa) of the proligands by pH-potentiometry, UV–vis and 1H NMR titrations; type: physicochemical; settings: 30% (v/v) DMSO/H2O solvent mixture, I = 0.1 M (KCl), t = 25 °C
Description: (§4) The path length was 1 cm.
^1H NMR spectroscopic studies were carried out on a Bruker Avance III HD instrument. All spectra were recorded with the WATERGATE water suppression pulse scheme using sodium trimethylsilylpropanesulfonate as internal standard.

[7] = Cyclic voltammetry of copper(II) complexes in DMSO/n-Bu4NPF6; type: physicochemical
Description: The redox properties of the copper(II) complexes 3–6 were investigated by electrochemical, EPR, and UV–vis spectroelectrochemical measurements. […] While the half-wave reduction potentials E1/2^red for complexes 3–5 were almost the same (−0.82 V vs Fc^+/Fc), the E1/2^red for 6 is by 0.07 V more positive (−0.75 V vs Fc^+/Fc), as summarized in Table 4. The corresponding proligands are not redox active in the cathodic part (not shown).
Cyclic voltammetric experiments with 0.5 mM solutions of copper(II) complexes 3–6 in 0.1 M nBu4NPF6 (puriss quality from Fluka; dried under reduced pressure at 70 °C for 24 h before use) as supporting electrolyte in DMSO (SeccoSolv max. 0.025% H2O, Merck) were performed under Ar using a three-electrode arrangement with Pt wire as the counter electrode and Ag wire as the pseudoreference electrode. Glassy carbon or Pt wire served as the working electrode. Ferrocene purchased from Sigma-Aldrich was used as the internal potential standard without further purification. All potentials in voltammetric studies were quoted vs ferricenium/ferrocene (Fc^+/Fc) as the redox couple. A Heka PG310USB (Lambrecht, Germany) potentiostat with a PotMaster 2.73 software package served for the potential control in voltammetric studies. In situ ultraviolet–visible-near-infrared (UV–vis–NIR) spectroelectrochemical measurements were performed on a spectrometer (Avantes, Model AvaSpec-2048 × 14-USB2 in the spectroelectrochemical cell kit ([…]3) with the Pt-microstructured honeycomb working electrode, purchased from Pine Research Instrumentation. The cell was positioned in the CUV-UV Cuvette Holder (Ocean Optics) connected to the diode array UV–vis-NIR spectrometer by optical fibers. UV–vis-NIR spectra were processed using the AvaSoft 7.7 software package. Halogen and deuterium lamps were used as light sources (Avantes, Model AvaLight-DH-S-BAL).

[8] = system: purified tubulin; experiment: Inhibition of polymerization of purified tubulin; type: biochemical; settings: read-out: inhibition of tubulin IC50 ± SD
[9] = Redox reaction of the copper(II) complexes with GSH (UV–vis, anoxic); type: physicochemical; settings: pH 7.4 (50 mM HEPES); ccomplex = 25 μM; cGSH = 1.25 mM; pure water; 25 °C
Description: The direct reduction of the copper(II) complexes with the antioxidant GSH was investigated in anoxic aqueous solution at pH 7.4 by UV–vis spectrophotometry. At this pH, the complex [Cu(HL)]^+ is assumed to predominate according to the speciation studies (vide supra). The spectral changes were monitored in the wavelength range 250–550 nm by using a large excess of GSH (50 equiv). In this wavelength range, the spectral changes are due to the absorption of the metal complex and the ligand.
These changes imply that, after reduction in the presence of excess GSH, the generated copper(I) complex is not stable and liberates the free TSC ligand. […] The time-dependent absorbance changes are shown for all the studied systems in Figure 4b. The observed rate constants (kobs) were calculated (Table 2) as a semiquantitative description of the reaction kinetics. […] The obtained kobs values fall into the range for Triapine (0.10 min^–1), 2-pyridinecarboxaldehyde TSC (0.041 min^–1), and N-monomethylated N-methyl-Triapine (0.077 min^–1), measured under similar conditions.[67] To find out whether this slightly different kinetics for 6 and 3–5 is in accordance with their reduction potentials, cyclic voltammetry was performed.
The redox reaction of the copper(II) complexes with GSH and ascorbic acid was studied at 25.0 ± 0.1 °C on a Hewlett-Packard 8452A diode array spectrophotometer using a special, tightly closed tandem cuvette (Hellma Tandem Cell, 238-QS). The reactants were separated until the reaction was triggered. Both isolated pockets of the cuvette were completely deoxygenated by bubbling a stream of Ar for 10 min before mixing the reactants. Spectra were recorded before and then immediately after the mixing, and changes were followed until no further absorbance change was observed. One of the isolated pockets contained the reducing agent, and the other contained the complex. Their final concentrations were 1250 and 25 μM, respectively. The pH of all the solutions was adjusted to 7.40 by 50 mM HEPES buffer. The ionic strength of the solution was 0.1 M (KCl). The stock solutions of the reducing agents and the complexes were freshly prepared every day. During the calculations, the absorbance (A) – time (t) curves were fitted and analyzed at the λmax of the complex. (A0 – Afinal) × e^(−a×t) + Afinal was the fitting equation used, where the A0, Afinal, and a parameters were refined and accepted at the minimal value of the weighted sum of squared residuals (difference between the measured and calculated absorbance values) at the given wavelength. Then, observed rate constants (kobs) of the redox reaction were obtained from the data points of the simulated absorbance–time curves as the slope of the ln(A/A0) vs time plots.

[10] = Conditional stability constants of the copper(II) complexes by EDTA displacement (UV–vis); type: physicochemical
Description: The stability constants of 3–6 were determined by EDTA competition experiments monitored by UV–vis spectrophotometry at pH 5.9, where the [Cu(HL)]^+ species is dominant. Since the displacement of the TSC ligand by EDTA is relatively slow, a 2 h reaction time was used to reach equilibrium. Upon increasing the concentration of EDTA, the absorbance of the characteristic S → Cu charge transfer band at 400–416 nm decreased (see, for example, Figure 3 for the copper(II)–H2L^4 (1:1) system).[68] The experiments were performed in both aqueous solution and the 30% (v/v) DMSO/H2O solvent mixture. The determined conditional (apparent) formation constants (log K′5.9) are rather similar (see Table 2) in both media. However, the values are lower in the DMSO/H2O solvent mixture than in aqueous solution, presumably due to coordination of DMSO to copper(II). An analogous observation was reported for the copper(II) complex of Triapine.[67] […] To compare the copper(II) binding ability of the studied TSCs H2L^3–H2L^6 at pH 5.9 (at which the conditional constants were determined), pCu (−log [Cu(II)]) values were also computed using the experimentally determined equilibrium constants (Table 2). The higher pCu value indicates a stronger metal ion binding ability of the ligand under given circumstances. The ligands form complexes with fairly similar stability, in agreement with the conditional stability constants. […] A similar behavior was reported for aqueous solutions of the N-terminally dimethylated derivative of the 2-pyridinecarboxaldehyde TSC (PTSC)[69] and for the corresponding morpholine-hybrid Morph-dm-FTSC.[52] In particular, the calculated pCu values were also very close, 13.17 for PTSC vs 13.08 for Morph-dm-FTSC calculated at pH 7.4.
as §4

[11] = system: tubulin; experiment: Inhibition of [3H]colchicine binding to tubulin; settings: for inhibition of colchicine binding % inhibition ± SD: tubulin 0.5 μM, colchicine 5 μM

COc1cccc2c1C(=O)c1c(O)c3c(c(O)c1C2=O)C[C@@](O)(C(=O)CO)C[C@@H]3O[C@H]1C[C@H](N)[C@H](O)[C@H](C)O1 [Doxorubicin, reference compound]
IC50 ([1]; Homo sapiens, MES-SA/Dx5): 1.9 ± 0.6 µM
SR, selectivity ratio IC50 (MES-SA)/IC50 (MES-SA/Dx5) [1]: 0.02
IC50 ([2]; Homo sapiens, MES-SA): 0.04 ± 0.01 µM

CN(C)C(=S)NN=Cc1ccccn1 [PTSC]
pCu [3]: 13.17

NC(=S)N/N=C/c1ccccn1 [2-pyridinecarboxaldehyde TSC]
kobs, reduction by GSH [4]: 0.041 min^–1

Cc1cc(NC(=S)N/N=C/c2ncccc2CN2CCOCC2)cc(C)c1O [H2L^3]
IC50 ([1]; Homo sapiens, MES-SA/Dx5): 13.1 ± 3.2 µM
SR, selectivity ratio IC50 (MES-SA)/IC50 (MES-SA/Dx5) [1]: 0.22
Y• reduced in mR2 protein ([5]; after 15 min, in the presence of 2 mM DTT): ~70%
Y• reduced in mR2 protein ([5]; without DTT): ca. 20%
pKa ([6]; UV–vis spectrophotometry, read-out: pKa1): 1.53 ± 0.01
pKa ([6]; pH–potentiometry, read-out: pKa1): < 2
pKa ([6]; pH–potentiometry, read-out: pKa2): 5.62 ± 0.06
pKa ([6]; pH–potentiometry, read-out: pKa3): > 10.5
IC50 ([2]; Homo sapiens, MES-SA): 2.9 ± 0.4 µM

Cc1cc(NC(=NN=Cc2ncccc2CN2CCOCC2)[S][Cu][Cl])cc(C)c1O [complex 3, [Cu(HL^3)Cl]·H2O]
Epa^1 ([7]; first anodic peak potential vs Fc+/Fc, 100 mV s^–1): +0.27 V
Epa^2 ([7]; second anodic peak potential vs Fc+/Fc, 100 mV s^–1): +0.79 V
E1/2^red ([7]; vs Fc+/Fc, scan rate 100 mV s^–1): –0.83 V
IC50 [1]: 5.5 ± 0.6 µM
SR, selectivity ratio IC50 (MES-SA)/IC50 (MES-SA/Dx5) [1]: 2.76
IC50 [8]: 7 ± 0.3 µM
kobs, redox reaction with GSH [9]: 0.059 ± 0.004 min^–1
logK′5.9 (DMSO/H2O) ([10]; EDTA displacement, UV–vis, pH 5.9, 30% (v/v) DMSO/H2O, 25 °C): 10.33 ± 0.01
logK′5.9 (H2O) ([10]; EDTA displacement, UV–vis, pH 5.9, water, I = 0.1 M (KCl), 25 °C): 13.82 ± 0.04
pCu5.9 (=–log[Cu(II)]) ([10]; calcd. at pH 5.9, cL = cCu(II) = 1 μM): 8.20
inhibition of colchicine binding % inhibition ± SD ([11]; 5 μM inhibitor): 22 ± 2%
inhibition of colchicine binding % inhibition ± SD ([11]; 25 μM inhibitor): 40 ± 3%
fold less potent than CA-4 in inhibiting [3H]colchicine binding ([11]; at the 5 μM concentration): 4.5 fold
IC50 [2]: 15 ± 3 µM

COc1ccc(/C=C\c2cc(OC)c(OC)c(OC)c2)cc1O [C-A4, Combretastatin A-4, reference compound]
inhibition of colchicine binding % inhibition ± SD ([11]; 0.5 μM inhibitor): 85 ± 2%
